Experimental data reported in patent US20140080128A1, “METHOD FOR DETERMINING WHETHER A SUBJECT IS AT RISK OF HAVING OR DEVELOPING A CHRONIC KIDNEY DISEASE” (Institut National de Ia Sante et de la Recherche Medicale …, priority 2011, published 2014).

Columns and labels:
Format in all cases: in vivo, Sprague-Dawley rats
[1] = system: CD3+ lymphocytes in renal cortex; test: Immunohistochemistry for CD3 in kidney of L-NAME rat model; conditions: rats, after 6 and 10 weeks LNAME treatment
Description: Male Sprague-Dawley rats, weighing 250 g, were maintained on a normal-salt diet and had free access to chow and tap water. NO synthesis was inhibited by L-NAME (orally, 15 mg·kg-1·day-1). […] When proteinuria exceeded 1 g/mmol creatinine (after 5 or 6 weeks), a group of animals was killed to allow estimations of renal hemodynamics and morphological parameters just before the beginning of therapy (LN 6w group, n=10). The remaining animals were divided into two subgroups for an additional experimental period of 4 weeks: in the first subgroup, L-NAME was given alone (LN 10w group, n=12); in the second subgroup treatment was accompanied by the administration of an AT1 receptor antagonist (Losartan, orally 30 mg·kg-1·day-1, Merck Sharp and Dohme-Chibret). At the end of Losartan treatment, we separated the animals of the second group in two subgroups: animals with normal creatininemia below 50 μmol/l (LN reg n=14) and animals with a creatininemia above 70 μmol/l (LN no reg n=15). The doses of the drugs were based on pilot experiments and previously published studies. Control animals were sacrificed at 6 and 10 week. Since control animals gave similar results for all measured parameters, pooled data are presented (C group, n=8). […] Quantification of CD3-positive cells was performed using Olympus analysis software.

[2] = system: Hypertension-Induced Renal Disease Rat Model (L-NAME); test: Renal hemodynamics (arterial pressure, renal blood flow) in L-NAME hypertension-induced renal disease rat model; conditions: for MAP (mean arterial pressure): L-NAME orally 15 mg/kg/day
Description: (§1) Male Sprague-Dawley rats, weighing 250 g, were maintained on a normal-salt diet and had free access to chow and tap water. NO synthesis was inhibited by L-NAME (orally, 15 mg·kg-1·day-1). […] When proteinuria exceeded 1 g/mmol creatinine (after 5 or 6 weeks), a group of animals was killed to allow estimations of renal hemodynamics and morphological parameters just before the beginning of therapy (LN 6w group, n=10). The remaining animals were divided into two subgroups for an additional experimental period of 4 weeks: in the first subgroup, L-NAME was given alone (LN 10w group, n=12); in the second subgroup treatment was accompanied by the administration of an AT1 receptor antagonist (Losartan, orally 30 mg·kg-1·day-1, Merck Sharp and Dohme-Chibret). At the end of Losartan treatment, we separated the animals of the second group in two subgroups: animals with normal creatininemia below 50 μmol/l (LN reg n=14) and animals with a creatininemia above 70 μmol/l (LN no reg n=15). The doses of the drugs were based on pilot experiments and previously published studies. Control animals were sacrificed at 6 and 10 week. Since control animals gave similar results for all measured parameters, pooled data are presented (C group, n=8). Others animals received Losartan during 4 weeks as additional control group (LOS group, n=3). All protocols and treatments were performed with the approval of the French government ethics committee.
After anesthesia by pentobarbital sodium (50-60 mg/kg body wt ip, Nembutal, Abbott, Chicago, Ill.), animals were placed on a servo-controlled table kept at 37° C. and the trachea was cannulated to facilitate respiration. The left femoral artery was catheterized for measurement of arterial pressure, and a femoral venous catheter was used for infusion of volume replacement. An ultrasound transit-time flow probe (1RB, Transonic, Ithaca, N.Y.) was placed around the left renal artery. Bovine serum albumin (4.7 g/dl of saline solution) was infused initially at 50 μl/min to replace surgical losses, and then at 10 μl/min for maintenance. Arterial pressure was measured via a pressure transducer (Statham P23 DB); RBF was measured by a flowmeter (T 420, low-pass filter, 40 Hz, Transonic). RBF values were controlled for zero offset determined at the end of an experiment after cardiac arrest. Data were recorded, stored, and analyzed using a DataTranslation analog-to-digital converter and the IOX software (EMKA Technologies, Paris, France).

[3] = system: Hypertension-Induced Renal Disease Rat Model (L-NAME); test: Urinary protein excretion and plasma creatinine in L-NAME rat model
Description: as §1, with “committee. Urine samples were collected for a 4-h period. Urinary protein concentration was normalized to creatinine concentration, and values were expressed as grams protein per millimole creatinine. Blood samples were withdrawn on the last day of the study, and plasma creatinine […] was measured by automated Jaffe's method.” for “committee.”

[4] = system: periostin, vimentin expression in renal cortex; test: Real time quantitative PCR (and immunoblotting) of markers in renal cortex of L-NAME rat model; conditions: for periostin mRNA up-regulation in kidney (RT-qPCR): rats, versus baseline
Description: Male Sprague-Dawley rats, weighing 250 g, were maintained on a normal-salt diet and had free access to chow and tap water. NO synthesis was inhibited by L-NAME (orally, 15 mg·kg-1·day-1). […] When proteinuria exceeded 1 g/mmol creatinine (after 5 or 6 weeks), a group of animals was killed to allow estimations of renal hemodynamics and morphological parameters just before the beginning of therapy (LN 6w group, n=10). The remaining animals were divided into two subgroups for an additional experimental period of 4 weeks: in the first subgroup, L-NAME was given alone (LN 10w group, n=12); in the second subgroup treatment was accompanied by the administration of an AT1 receptor antagonist (Losartan, orally 30 mg·kg-1·day-1, Merck Sharp and Dohme-Chibret). At the end of Losartan treatment, we separated the animals of the second group in two subgroups: animals with normal creatininemia below 50 μmol/l (LN reg n=14) and animals with a creatininemia above 70 μmol/l (LN no reg n=15). The doses of the drugs were based on pilot experiments and previously published studies. Control animals were sacrificed at 6 and 10 week. Since control animals gave similar results for all measured parameters, pooled data are presented (C group, n=8). Others animals received Losartan during 4 weeks as additional control group (LOS group, n=3). All protocols and treatments were performed with the approval of the French government ethics committee. We extracted RNA from the renal cortex and the abdominal aorta using TRIzol solution (Life Technologies BRL, Gaithersburg, Md.). RNA quality was checked by measuring the ratio of optical densities at 260 and 280 nm and residual genomic DNA was removed by DNase I treatment for 30 min at 37° C. (Fermentas). We used reverse transcription with Revert Aid H minus First Strand DNA Synthesis kit (Fermentas) to convert 1 μg RNA into cDNA, which was then amplified by PCR using a LightCycler 480 (Roche Diagnostic) using SYBR Green (Fast Start DNA Master SYBRGreen I; Roche Applied Science, Roche Diagnostic), specific primers for POST, Col3A1, ESel, Vimentin, VCAM-1 and hypoxanthine-guanine phosphoribosyltransferase (HPRT) as housekeeping gene under the following conditions: 95° C. for 5 min, and 45 cycles at 95° C. for 15 s and 60° C. for 15 s, then 72° C. for 15 s. Specific primers were designed by Universal Probe Library system (UPL, Roche Applied Science). To normalize the Q-PCR results we used Roche LightCycler 2.0 software (Roche Diagnostic). We expressed results as 2-[…], where Cp is the cycle threshold number. We analyzed dissociation curves after each run for each amplicon to access the specificity of quantification when using SYBR Green. 25 μg of protein extracts obtained by RIPA buffer lysis of renal cortex were fractionated by SDS-PAGE NuPAGE 4/12% gels (Invitrogen) under reducing conditions using an XCell SureLockTM Mini-Cell (NuPAGE, Invitrogen, San Diego, Calif., USA) as described by the manufacturer and transferred onto a nitrocellulose membrane (Immobilon-P, Millipore, Billerica, Mass., USA) prior to detection of the POST (Biovendor) or β-actin (Imgenex, Clinisciences, France) protein with a specific rabbit polyclonal primary Ab (dilution 1/1000 and 1/5000 respectively) and a peroxidase-labelled IgG anti-rabbit secondary Ab (dilution 1/4000). The membrane was detected by enhanced chemiluminescence (ECL)-plus kit (Amersham Biosciences, Piscataway, N.J., USA) on autoradiography films (Fuji).

[5] = all losartan-treated groups compared to L-NAME 6w and 10w groups

## COC(=O)[C@@H](N)CCCNC(=N)N[N+](=O)[O-] [LNAME, L-NAME]
[1]
  CD3+ lymphocyte count: strongly increased
[2]; rats, 6 weeks treatment
  MAP (mean arterial pressure): 211±7 mmHg
[2]; rats, 10 weeks treatment
  MAP (mean arterial pressure): 212±5 mmHg
[2]; rats, from 6 weeks LNAME treatment onwards
  renal blood flow: striking reduction
[3]; rats, L-NAME, week 6
  proteinuria: 1.3±0.2 g/mmol creatininuria
[3]; rats, L-NAME, week 10
  creatininemia: 100 ± 14 µmol/L
[4]; after 6 weeks LNAME
  periostin mRNA up-regulation in kidney (RT-qPCR): 13 fold
[4]; after 10 weeks LNAME
  periostin mRNA up-regulation in kidney (RT-qPCR): 18 fold

## CCCCc1nc(Cl)c(CO)n1Cc1ccc(-c2ccccc2-c2nn[nH]n2)cc1 [Losartan]
[2]; [5]
  renal hemodynamic alterations: ameliorated
[3]; after 4 weeks Losartan (30 mg/kg/day orally)+LNAME, "No Regression" (NOREG) group
  creatininemia: 76 ± 3 µmol/L
[3]; after 4 weeks Losartan (30 mg/kg/day orally)+LNAME, "Regression" (REG) group
  creatininemia: 50 ± 2 µmol/L
[3]; [5]
  proteinuria: ameliorated
[4]; L-NAME+losartan 4 weeks, NOREG group
  periostin expression in renal cortex: persistent increase
[4]; L-NAME+losartan 4 weeks, REG group
  periostin mRNA and protein expression in renal cortex: significantly blunted
[4]; after initiation of losartan in L-NAME rats, irrespective of the REG/NOREG group
  vimentin mRNA expression in renal cortex: sharp decrease
